Test results published in ChEMBL document CHEMBL6177994 (J Med Chem, 2025).
Active and inactive are the calls of the source. No cut-off for these calls is given here.

Key:
[1] = Drug concentration in male Balb/c nude mouse plasma xenografted with human GP2d cells at 10 mg/kg, iv administered as single dose measured after 6 hrs by LC-MS/MS analysis; assay type: ADME, organism-based
ASPC1 [2] = assay: Antiproliferative activity against human ASPC1 cells harbouring KRAS G12D mutant assessed as inhibition of cell growth measured after 72 hrs by Cell titer glo method; assay type: functional, cell-based; conditions: ASPC1, 72 h
SW1990 = assay: Antiproliferative activity against human SW1990 cells harbouring KRAS G12D mutant assessed as inhibition of cell growth measured after 72 hrs by Cell titer glo method; assay type: functional, cell-based
Cytochrome P450 2C8 = Cytochrome P450 2C8 (Homo sapiens, UniProt P10632); assay: Inhibition of CYP2C8 in human liver microsomes using amodiaquine as substrate at 10 uM incubated for 20 mins in presence of NADPH by LC/MS analysis; assay type: ADME, Microsome
[3] = tested on: Protein cereblon/GTPase KRas (Homo sapiens), P01116+Q96SW2 [G12D]; assay: PROTAC activity at CRBN/KRAS G12D mutant in human ASPC1 cells assessed as induction of KRAS G12D mutant degradation at 10 nM measured after 12 hrs by immunoblot analysis relative to control; assay type: cell-based
[4] = Drug concentration in male Balb/c nude mouse tumor xenografted with human PK-59 cells at 10 mg/kg, iv administered as single dose measured after 168 hrs by LC-MS/MS analysis; assay type: ADME, organism-based, Neoplasm; conditions: read-out: Ct
A-427 = assay: Antitumor activity against human A-427 cells harbouring KRAS G12D mutant xenografted in female Balb/c nude mouse model assessed as tumor regression at 1 to 10 mg/kg, iv QW administered weekly and measured after 28 days relative to control; assay type: functional; conditions: dose 1-10 mg/kg, time 28 day
[5] = tested on: Protein cereblon/GTPase KRas (Homo sapiens), P01116+Q96SW2 [G12D]; assay: PROTAC activity at CRBN/KRAS G12D mutant in human ASPC1 cells assessed as induction of KRAS G12D mutant degradation at 5 nM preincubated with CRBN ligand followed by compound addition and measured after 24 hrs by Western blot analysis; assay type: cell-based
[6] = Antiproliferative activity against human PK-59 cells harbouring KRAS G12D mutant assessed as inhibition of cell growth measured after 72 hrs by Cell titer glo method; assay type: functional, cell-based; conditions: PK-59, 72 h
[7] = Metabolic stability in rat liver microsomes assessed as half life at 1 uM preincubated for 3 mins with NADPH and measured up to 60 mins by LC-MS/MS analysis; assay type: ADME, Microsome; conditions: time < 63 min
[8] = tested on: Protein cereblon/GTPase KRas (Homo sapiens), P01116+Q96SW2 [G12D]; assay: In vivo PROTAC activity at CRBN/KRAS G12D mutant in male Balb/c nude mouse xenografted with human PK-59 cells assessed as reduction in ERK phosphorylation level in tumor at 10 mg/kg, iv measured up to 168 hrs; assay type: functional, organism-based
[9] = AUC (0 to t) in male cynomolgus monkey at 1 mg/kg, iv measured up to 24 hrs by LC-MS/MS analysis; assay type: ADME, organism-based, Macaca fascicularis; conditions: in vivo
[10] = Elimination half life in male ICR mouse colon at 10 mg/kg, iv measured up to 336 hrs by LC-MS/MS analysis; assay type: ADME, organism-based; conditions: read-out: beta t1/2 (converted)
NCI-H727 = assay: Antiproliferative activity against human NCI-H727 cells harbouring KRAS G12V mutant assessed as inhibition of cell growth measured after 72 hrs by Cell titer glo method; assay type: functional, cell-based
[11] = Toxicity in female Balb/c nude mouse xenografted with human GP2d cells assessed as drug tolerance at 1 to 10 mg/kg, iv Q2W measured after 28 days; assay type: organism-based; conditions: in vivo, 672 h, dose 1-10 mg/kg, time 28 day
[12] = molecular target: Protein cereblon/GTPase NRas (Homo sapiens) (UniProt P01111+Q96SW2); assay: PROTAC activity at CRBN/NRAS in human MKN-1 cells assessed as induction of […] 0.061 to 1000 nM measured after 24 hrs by immunoblot analysis; assay type: cell-based; conditions: dose 0.061-1000 nM
AGS [13] = assay: Antiproliferative activity against human AGS cells harbouring KRAS G12D mutant assessed as inhibition of cell growth measured after 72 hrs by Cell titer glo method; assay type: functional, cell-based
Panc 04.03 = assay: Antiproliferative activity against human Panc 04.03 cells harbouring KRAS G12D mutant assessed as inhibition of cell growth measured after 72 hrs by Cell titer glo method; assay type: functional, cell-based
[14] = Antitumor activity against human GP2d cells xenografted in female Balb/c nude mouse model assessed as tumor growth inhibition at 10 mg/kg, iv QW administered […] and measured after 28 days relative to control; assay type: functional; conditions: 672 h, time 28 day, read-out: TGI
[15] = Clearance in male Beagle dog at 1 mg/kg, iv measured up to 24 hrs by LC-MS/MS analysis; assay type: ADME, organism-based, Canis lupus familiaris; conditions: in vivo
AGS [16] = assay: PROTAC activity at CRBN/KRAS G12D mutant in human AGS cells assessed as induction of KRAS G12D mutant degradation 0.01 to 100 nM measured after 24 hrs by immunoblot analysis; assay type: cell-based; conditions: dose 0.01-100 nM
[17] = Volume of distribution at steady state in male ICR mouse at 1 mg/kg, iv measured up to 24 hrs by LC-MS/MS analysis; assay type: ADME, organism-based; conditions: in vivo, read-out: Vdss
SK-LU-1 = assay: Antiproliferative activity against human SK-LU-1 cells harbouring KRAS G12D mutant assessed as inhibition of cell growth measured after 72 hrs by Cell titer glo method; assay type: functional, cell-based
[18] = Inhibition of ERK phosphorylation in human PK-59 cells harbouring KRAS G12D mutant measured after 24 hrs; assay type: cell-based; conditions: PK-59, 24 h
PSN1 = assay: Antiproliferative activity against human PSN1 cells harbouring KRAS G12R mutant assessed as inhibition of cell growth measured after 72 hrs by Cell titer glo method; assay type: functional, cell-based
SNU-407 = assay: Antitumor activity against human SNU-407 cells harbouring KRAS G12D mutant xenografted in female Balb/c nude mouse model assessed as tumor regression at 1 to 10 mg/kg, iv QW administered weekly and measured after 28 days; assay type: functional, organism-based; conditions: dose 1-10 mg/kg, time 28.0 day
CCRF-CEM [19] = assay: Antitumor activity against human CCRF-CEM cells harbouring KRAS G12D mutant xenografted in female Balb/c nude mouse model assessed as tumor regression at 1 to 10 mg/kg, iv QW administered weekly and measured after 28 days; assay type: functional, organism-based; conditions: dose 1-10 mg/kg, time 28.0 day
NCI-H358 = assay: Antiproliferative activity against human NCI-H358 cells harbouring KRAS G12C mutant assessed as inhibition of cell growth measured after 72 hrs by Cell titer glo method; assay type: functional, cell-based
[20] = tested on: Protein cereblon/GTPase KRas (Homo sapiens), P01116+Q96SW2 [G12D]; assay: PROTAC activity at CRBN/KRAS G12D mutant in human ASPC1 cells assessed as induction of KRAS G12D mutant degradation at 1 nM measured after 12 hrs by immunoblot analysis relative to control; assay type: cell-based
CCRF-CEM [21] = assay: Antiproliferative activity against human CCRF-CEM cells harbouring KRAS G12D mutant assessed as inhibition of cell growth measured after 72 hrs by Cell titer glo method; assay type: functional, cell-based
[22] = Inhibition of ERK phosphorylation in human AGS cells harbouring KRAS G12D mutant measured after 24 hrs; assay type: cell-based
ASPC1 [23] = assay: Effect on GSPT1 level in human ASPC1 cells at 10 nM measured after 8 hrs by Western blot analysis; assay type: functional, cell-based

Protein cereblon/GTPase KRas (Homo sapiens), P01116+Q96SW2 [G12D], sequence (P01116 whole entry G12D): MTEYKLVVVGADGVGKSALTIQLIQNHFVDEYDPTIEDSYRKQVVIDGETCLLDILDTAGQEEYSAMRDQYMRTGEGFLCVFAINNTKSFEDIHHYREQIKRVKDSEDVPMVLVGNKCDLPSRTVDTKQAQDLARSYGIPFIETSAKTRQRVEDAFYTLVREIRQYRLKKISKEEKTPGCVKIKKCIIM
Protein cereblon/GTPase KRas (Homo sapiens), P01116+Q96SW2 [G12D], sequence (Q96SW2 whole entry partner): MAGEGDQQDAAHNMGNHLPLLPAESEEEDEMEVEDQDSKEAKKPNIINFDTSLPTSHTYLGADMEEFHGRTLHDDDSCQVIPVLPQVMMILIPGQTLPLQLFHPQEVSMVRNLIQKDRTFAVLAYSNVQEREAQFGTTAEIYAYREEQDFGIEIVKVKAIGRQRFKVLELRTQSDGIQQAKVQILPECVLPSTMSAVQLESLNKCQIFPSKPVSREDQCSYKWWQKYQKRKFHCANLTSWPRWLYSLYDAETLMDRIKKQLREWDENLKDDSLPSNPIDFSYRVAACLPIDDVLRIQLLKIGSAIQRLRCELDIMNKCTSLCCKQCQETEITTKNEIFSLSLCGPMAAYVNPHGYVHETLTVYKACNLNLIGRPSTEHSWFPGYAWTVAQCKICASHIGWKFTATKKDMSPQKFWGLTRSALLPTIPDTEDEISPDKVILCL
Cytochrome P450 2C8, sequence (P10632 whole entry): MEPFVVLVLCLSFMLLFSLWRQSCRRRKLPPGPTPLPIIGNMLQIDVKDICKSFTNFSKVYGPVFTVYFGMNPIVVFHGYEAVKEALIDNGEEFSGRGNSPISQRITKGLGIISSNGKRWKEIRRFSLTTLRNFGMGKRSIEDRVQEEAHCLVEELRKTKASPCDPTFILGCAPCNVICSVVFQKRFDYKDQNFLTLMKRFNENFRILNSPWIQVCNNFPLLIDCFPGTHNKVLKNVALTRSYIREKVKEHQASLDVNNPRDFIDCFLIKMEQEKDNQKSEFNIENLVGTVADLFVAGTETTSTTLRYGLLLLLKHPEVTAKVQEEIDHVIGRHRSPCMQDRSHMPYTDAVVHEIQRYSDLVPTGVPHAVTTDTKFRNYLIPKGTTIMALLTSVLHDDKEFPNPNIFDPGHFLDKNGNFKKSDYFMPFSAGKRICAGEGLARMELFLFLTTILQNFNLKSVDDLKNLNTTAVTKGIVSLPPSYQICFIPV
Protein cereblon/GTPase NRas (Homo sapiens), sequence (P01111 whole entry, looked up): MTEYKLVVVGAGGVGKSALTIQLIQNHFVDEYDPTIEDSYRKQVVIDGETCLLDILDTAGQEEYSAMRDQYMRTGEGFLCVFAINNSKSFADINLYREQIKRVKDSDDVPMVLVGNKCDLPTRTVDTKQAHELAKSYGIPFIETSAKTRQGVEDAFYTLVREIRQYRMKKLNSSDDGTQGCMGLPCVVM
Protein cereblon/GTPase NRas (Homo sapiens), sequence (Q96SW2 whole entry, looked up): as the sequence (Q96SW2 whole entry partner) above

## C#Cc1c(F)ccc2cc(O)cc(-c3ncc4c(N5CC6CCC(C5)N6)nc(OCC5(CN6CCC7(CC6)CC(N6CCC(c8cc9c(cc8F)c(N8CCC(=O)NC8=O)nn9C)CC6)C7)CC5)nc4c3F)c12
[1]
  concentration at 6 h: 113 ng/mL
ASPC1 [2]
  IC50: 4.19 nM
SW1990
  Activity: Active; Compound Showed Stronger Antiproliferative Activity Compared To Mrtx1133
Cytochrome P450 2C8
  inhibition (INH): Not_active
[3]
  Activity: 90%
[4]
  concentration at 168 h: 719 ng/g
A-427
  Activity: >30%
[5]
  Activity: Active
[6]
  IC50: 2.8 nM
[7]
  half-life at 1 µM: 2.52 h
[8]
  Activity: Active
[9]
  AUC(0-t) at 24 h: 0.836 µM·h
[10]
  half-life: 94.6 h
NCI-H727
  Activity: Weak_effect; Compound Showed Weaker Potency In Antiproliferative Activity Compared To Mrtx1133
[11]
  Activity: Non-toxic
[12]
  Activity: inactive
AGS [13]
  IC50: 1.01 nM
Panc 04.03
  Activity: Active; Compound Showed Stronger Antiproliferative Activity Compared To Mrtx1133
[14]
  inhibition in vivo at 10 mg/kg: 94.7%
[15]
  clearance: 33 mL/min/kg
AGS [16]
  Activity: Active
[17]
  Vd: 15.8 L/kg
SK-LU-1
  Activity: Active; Compound Showed Stronger Antiproliferative Activity Compared To Mrtx1133
[18]
  IC50: 2.7 nM
PSN1
  Activity: Weak_effect; Compound Showed Weaker Potency In Antiproliferative Activity Compared To Mrtx1133
SNU-407
  Activity: Weak_effect
CCRF-CEM [19]
  Activity: Weak_effect
NCI-H358
  Activity: Weak_effect; Compound Showed Weaker Potency In Antiproliferative Activity Compared To Mrtx1133
[20]
  Activity: 70%
CCRF-CEM [21]
  Activity: Active; Compound Showed Stronger Antiproliferative Activity Compared To Mrtx1133
[22]
  IC50: 10.6 nM
ASPC1 [23]
  Activity: inactive
